In PubChem BioAssay AID1259407 (Chemical Carcinogenesis Research Information System (CCRIS), 2018):
Calls of active or inactive are those of the source. How the calls were made is not given here.

Tested on: CCRIS mutagenicity, Ames/micronucleus/aberration tests
Test: CCRIS mutagenicity studies
[1] = Test System: AMES SALMONELLA TYPHIMURIUM, Strain/Indicator: TA98, Metabolic Activation: RAT, LIVER, S-9, AROCLOR 1254, Method: STANDARD PLATE
[2] = Test System: AMES SALMONELLA TYPHIMURIUM, Strain/Indicator: TA100, Metabolic Activation: RAT, LIVER, S-9, AROCLOR 1254, Method: STANDARD PLATE
[3] = Test System: AMES SALMONELLA TYPHIMURIUM, Strain/Indicator: TA1535, Metabolic Activation: NONE, Method: STANDARD PLATE
[4] = Test System: AMES SALMONELLA TYPHIMURIUM, Strain/Indicator: TA1535, Metabolic Activation: RAT, LIVER, S-9, AROCLOR 1254, Method: STANDARD PLATE
[5] = Test System: AMES SALMONELLA TYPHIMURIUM, Strain/Indicator: TA1537, Metabolic Activation: NONE, Method: STANDARD PLATE
[6] = Test System: AMES SALMONELLA TYPHIMURIUM, Strain/Indicator: TA98, Metabolic Activation: NONE, Method: STANDARD PLATE
[7] = Test System: AMES SALMONELLA TYPHIMURIUM, Strain/Indicator: TA100, Metabolic Activation: NONE, Method: STANDARD PLATE

For `NC(=O)NO`, the mutagenic call (End Point: IN VITRO MICRONUCLEUS, Test System: CHINESE HAMSTER V79 CELLS, Metabolic Activation: NONE) was “active; positive; effect greater at 16 hr exposure”, the mutagenic call (End Point: IN VITRO MICRONUCLEUS, Test System: CHO CELLS, Metabolic Activation: RAT, LIVER, S-9, AROCLOR 1254) was “active; positive” and the mutagenic call (End Point: In vitro micronucleus, Test System: Human lymphoblastoid TK6 cells, Metabolic Activation: None) was “active; positive (p<0.001)”. The mutagenic call (Test System: AMES SALMONELLA TYPHIMURIUM, Strain/Indicator: TA97, Metabolic Activation: NONE, Method: STANDARD PLATE) was “active; positive”, the mutagenic call (Test System: AMES SALMONELLA TYPHIMURIUM, Strain/Indicator: TA97, Metabolic Activation: RAT, LIVER, S-9, AROCLOR 1254, Method: STANDARD PLATE) was “active; positive” and the mutagenic call [1] was “active; positive”. The mutagenic call [2] was “active; positive”, the mutagenic call (Test System: AMES SALMONELLA TYPHIMURIUM, Strain/Indicator: TA102, Metabolic Activation: RAT, LIVER, S-9, AROCLOR 1254, Method: STANDARD PLATE) was “active; positive” and the mutagenic call [3] was “inactive; negative”. For the same compound, the mutagenic call [4] was “inactive; negative”, the mutagenic call [5] was “inactive; negative” and the mutagenic call (Test System: E. COLI, Strain/Indicator: WP2 (HCR), Metabolic Activation: NONE, Method: STANDARD PLATE) was “inactive; negative”. For the same compound, the mutagenic call (Test System: MOUSE LYMPHOMA, Strain/Indicator: L5178Y (TK+/TK-), Metabolic Activation: NONE, Method: MICROWELL) was “active; positive”, the mutagenic call (Test System: MOUSE LYMPHOMA, Strain/Indicator: L5178Y (TK+/TK-), Metabolic Activation: NONE, Method: SUSPENSION/PLATE) was “active; positive” and the mutagenic call (Test System: MOUSE LYMPHOMA, Strain/Indicator: L5178Y (TK+/TK-), Metabolic Activation: S-9, Method: MICROWELL) was “active; positive”. For the same compound, the mutagenic call (Test System: UDS RODENT HEPATOCYTES, Strain/Indicator: THY INCORP (NON-S-PHASE), Metabolic Activation: NONE, Method: AUTORADIOGRAPHY) was “active; positive”.
In the case of `CC(=O)O.CC(=O)O.[O]=[U]=[O]`, the mutagenic call (Test System: Chinese hamster ovary cells, Strain/Indicator: EM9 (HPRT)/6-Thioguanine, Metabolic Activation: None) was “active; positive”.
For `CN(C)c1ccc([C@H]2C[C@@]3(C)[C@@H](CC[C@@]3(O)/C=C\CO)[C@@H]3CCC4=CC(=O)CCC4=C32)cc1`, the mutagenic call (End Point: IN VITRO CHROMOSOMAL ABERRATIONS, Test System: HUMAN PERIPHERAL LYMPHOCYTES, Metabolic Activation: NONE) was “inactive; negative”, the mutagenic call (End Point: IN VITRO CHROMOSOMAL ABERRATIONS, Test System: HUMAN PERIPHERAL LYMPHOCYTES, Metabolic Activation: RAT, LIVER, S-9, AROCLOR 1254) was “inactive; negative” and the mutagenic call [6] was “inactive; negative”. The mutagenic call [1] was “inactive; negative”, the mutagenic call [7] was “inactive; negative” and the mutagenic call [2] was “inactive; negative”. The mutagenic call [3] was “inactive; negative”, the mutagenic call [4] was “inactive; negative” and the mutagenic call [5] was “inactive; negative”. The mutagenic call (Test System: AMES SALMONELLA TYPHIMURIUM, Strain/Indicator: TA1537, Metabolic Activation: RAT, LIVER, S-9, AROCLOR 1254, Method: STANDARD PLATE) was “inactive; negative”, the mutagenic call (Test System: AMES SALMONELLA TYPHIMURIUM, Strain/Indicator: TA1538, Metabolic Activation: NONE, Method: STANDARD PLATE) was “inactive; negative” and the mutagenic call (Test System: AMES SALMONELLA TYPHIMURIUM, Strain/Indicator: TA1538, Metabolic Activation: RAT, LIVER, S-9, AROCLOR 1254, Method: STANDARD PLATE) was “inactive; negative”.
In the case of `CCc1ccc(NC(=O)c2csc([N+](=O)[O-])c2)cc1`, the mutagenic call [6] was “active; positive” and the mutagenic call [7] was “active; positive”.
With `CC(=O)Nc1ccc(OCC(O)CNC(C)C)cc1` (stereo not given) the mutagenic call (Test System: AMES SALMONELLA TYPHIMURIUM, Strain/Indicator: TA98, Metabolic Activation: NONE) was “inactive; negative”, the mutagenic call [6] was “inactive; negative” and the mutagenic call (Test System: AMES SALMONELLA TYPHIMURIUM, Strain/Indicator: TA98, Metabolic Activation: RAT, LIVER, S-9, AROCLOR 1254) was “inactive; negative”. For the same compound, the mutagenic call [1] was “inactive; negative”, the mutagenic call (Test System: AMES SALMONELLA TYPHIMURIUM, Strain/Indicator: TA100, Metabolic Activation: NONE) was “inactive; negative” and the mutagenic call [7] was “inactive; negative”. The mutagenic call (Test System: AMES SALMONELLA TYPHIMURIUM, Strain/Indicator: TA100, Metabolic Activation: RAT, LIVER, S-9, AROCLOR 1254) was “inactive; negative”, the mutagenic call [2] was “inactive; negative” and the mutagenic call (Test System: AMES SALMONELLA TYPHIMURIUM, Strain/Indicator: TA1535, Metabolic Activation: NONE) was “inactive; negative”. The mutagenic call (Test System: AMES SALMONELLA TYPHIMURIUM, Strain/Indicator: TA1535, Metabolic Activation: RAT, LIVER, S-9, AROCLOR 1254) was “inactive; negative”, the mutagenic call (Test System: AMES SALMONELLA TYPHIMURIUM, Strain/Indicator: TA1537, Metabolic Activation: NONE) was “inactive; negative” and the mutagenic call (Test System: AMES SALMONELLA TYPHIMURIUM, Strain/Indicator: TA1537, Metabolic Activation: RAT, LIVER, S-9, AROCLOR 1254) was “inactive; negative”.
For `COc1ccc2c(c1OC)c(=O)n(C)c1c3cc4c(cc3ccc21)OCO4`, the mutagenic call (Test System: AMES SALMONELLA TYPHIMURIUM, Strain/Indicator: TA100, Metabolic Activation: RAT, LIVER, S-9, PHENOBARBITAL AND BETA-NAPHTHOFLAVONE, Method: PREINCUBATION) was “active; positive”.
In the case of `Nc1ccc2c3c(cccc13)-c1ccccc1-2`, the mutagenic call (Test System: AMES SALMONELLA TYPHIMURIUM, Strain/Indicator: TA98, Metabolic Activation: RAT, LIVER, S-9, AROCLOR 1254 (2 OR 4%), Method: STANDARD PLATE) was “active; positive”, the mutagenic call (Test System: AMES SALMONELLA TYPHIMURIUM, Strain/Indicator: TA100, Metabolic Activation: RAT, LIVER, S-9, AROCLOR 1254 (4%), Method: STANDARD PLATE) was “active; positive” and the mutagenic call (Test System: AMES SALMONELLA TYPHIMURIUM, Strain/Indicator: TA1535, Metabolic Activation: RAT, LIVER, S-9, AROCLOR 1254 (4%), Method: STANDARD PLATE) was “inactive; negative”. For the same compound, the mutagenic call (Test System: AMES SALMONELLA TYPHIMURIUM, Strain/Indicator: TA1537, Metabolic Activation: RAT, LIVER, S-9, AROCLOR 1254 (4%), Method: STANDARD PLATE) was “active; positive”.
`ClCCN(CCCl)c1ccc2ccccc2c1` was tested, and the mutagenic call [7] was “active; positive”, the mutagenic call [2] was “active; positive” and the mutagenic call (Test System: AMES SALMONELLA TYPHIMURIUM, Strain/Indicator: TA100, Metabolic Activation: RAT, LIVER, S-9, AROCLOR (10%), Method: STANDARD PLATE) was “active; positive”. The mutagenic call (Test System: AMES SALMONELLA TYPHIMURIUM, Strain/Indicator: TA100, Metabolic Activation: RAT, LIVER, S-9, AROCLOR (WITHOUT ADDED COFACTORS), Method: STANDARD PLATE) was “active; positive”, the mutagenic call [3] was “active; positive” and the mutagenic call (Test System: AMES SALMONELLA TYPHIMURIUM, Strain/Indicator: TA1535, Metabolic Activation: RAT, LIVER, S-9, AROCLOR (10%), Method: STANDARD PLATE) was “active; positive”.
With `Cc1cc2c(O)cccc2c2cc3ccccc3cc12` the mutagenic call (Test System: AMES SALMONELLA TYPHIMURIUM, Strain/Indicator: TA100, Metabolic Activation: RAT, LIVER, S-9, AROCLOR 1254, Method: PREINCUBATION) was “active; positive”.
